Assay results reported in US11819488B2, “Nanosuspensions of salsalate and methods of using the same” (RHNanoPharma, priority 2018, dated 2023).

Tests used:
[1] = in terms of salicylic acid equivalents; cited from earlier work
[2] = Particle size analysis, Horiba light scattering; oral excipient screen (Example 1); format: physicochemical; conditions: unmilled aqueous suspension of 5% salsalate, FIG. 1B
Description: The pH of salsalate in water was slightly below 4, so no pH adjustment was attempted. The samples were analyzed using Horiba light scattering particle size distributions (PSD). One of several acceptable formulations was selected to scale up to a higher concentration of API using high speed media milling. […] Eight different aqueous nanosuspensions of salsalate, with differing surfactants or combinations of surfactants, were prepared and analyzed for particle size. The first 7 formulations were made by roller milling with a Roller-Mill RM20 (ZOZ GmbH) with YTZ-800 grinding media (Tosoh Corp.) at 192 rpm. The 8th formulation was made via high speed media milling (5000 rpm). The particle sizes of the resultant compositions were then analyzed using a Horiba light scattering particle size analyzer. The compositions and results of the particle size analyses are shown below in Table 2 and in FIGS. 2A, 2B, 3A, 3B etc. through 9A and 9B.

pH of salsalate in water = format: physicochemical
Description: The pH of salsalate in water was slightly below 4, so no pH adjustment was attempted. The samples were analyzed using Horiba light scattering particle size distributions (PSD). One of several acceptable formulations was selected to scale up to a higher concentration of API using high speed media milling.

[3] = studies of 3 weeks or more in duration; cited from earlier work
[4] = non-nano salsalate 3.0, 3.5, 4.0 g/d vs placebo, type two diabetes, P=0.003, FIG. 28A; cited from earlier work

## O=C(Oc1ccccc1C(=O)O)c1ccccc1O [salsalate, 2-hydroxybenzoyloxy benzoic acid]
[1]
  salicylic acid obtained relative to an equivalent dose of aspirin, based on relative AUC values: approximately 84%
[2]
  D90 particle size: 435 μm
  mean particle size: 244 μm
  median particle size: 222.24 μm
pH of salsalate in water
  pH of salsalate in water: below 4
[3]
  study withdrawal from the salsalate group for any reason: 17-38%
[4]
  HbAlc level over time, F test for the overall effect of treatment group: significant
